In patent publication US4950686A, “Anti-mycoplasma agent” (Shionogi & Co., Ltd., priority 1986, dated 1990):
In brackets after ≈: the same amount, converted by molar mass. Where two headings read alike, the source gives them in different places.

Tests used:
Assay type in all cases: cell-based
[1] = tested on: Mycoplasma gallisepticum S6 (standard strain); assay: Anti-mycoplasma activity in vitro (MIC, broth dilution), strain S6; conditions: Mg S6, 37° C., 7 days
Experimental: (§1) (1) Anti-mycoplasma activity test in vitro
(§2) MIC values of each of Tropolones were measured on the following strains according to the following method.
(§3) (a) Mycoplasma gallisepticum
(§4) Medium: Chick PPLO broth supplemented with 20% equine serum (Eiken Kagaku Co., Ltd.)
(§5) Method: Broth dilution method
(§6) Inoculum: Culture incubated at 37° C. for 24-48 hr which is diluted with broth to 10^6 CCU/ml immediately before the use.
(§7) To 1.6 ml of the broth is added 0.2 ml of an agent which has been subjected to 2-fold dilution and then added 0.2 ml of inoculum, which is incubated at 37° C. for 7 days.

[2] = tested on: Mycoplasma gallisepticum T-7-T (wild strain, tylosin-resistant); assay: Anti-mycoplasma activity in vitro (MIC, broth dilution), strain T-7-T; conditions: Mg T-7-T, 37° C., 7 days
Experimental: as §1, §2, §3
T-7-T (wild strain, tylosin-resistant)
as §4, §5, §6, §7

[3] = tested on: Mycoplasma gallisepticum MR-1 (wild strain, tylosin-resistant); assay: Anti-mycoplasma activity in vitro (MIC, broth dilution), strain MR-1; conditions: Mg MR-1, 37° C., 7 days
Experimental: as §1, §2, §3
MR-1 (wild strain, tylosin-resistant)
as §4, §5, §6, §7

[4] = tested on: Mycoplasma hyopneumoniae ST-11 (standard strain); assay: Anti-mycoplasma activity in vitro (MIC, broth dilution), strain ST-11; conditions: Mh ST-11
Experimental: as §1, §2
(b) Mycoplasma hyopneumoniae
Strain: ST-11 (standard strain)
Medium: 850 ml of Hanks' solution supplemented with 0.5% lactoalbumin, 50 ml of 25% yeast, 100 ml of equine serum and 4-6 ml of 0.5% phenol red (pH 7.4-7.6)
as §5
Inoculum: Culture which is incubated for 3-4 days and diluted 10 times with the broth if color of the broth becomes yellow then. If it needs over 4 days until color of the broth becomes yellow, it is further subcultured. This is diluted 10 times with the broth to give inoculum.
Assay is done in the same manner as in the above (a).

[5] = Mycoplasmoides gallisepticum, 168 h, read-out: MIC
[6] = Mesomycoplasma hyopneumoniae, read-out: MIC

Compound | MIC [1, 5] [mg/L] | MIC [2, 5] [mg/L] | MIC [3, 5] [mg/L] | MIC [4, 6] [mg/L] | MIC [1] [mg/L] | MIC [2] [mg/L] | MIC [3] [mg/L] | MIC [4] [mg/L]
O=c1c(O)ccccc1O [Compound 27, 7-Hydroxytropolone] | 12.5 (≈ 90.5 µM) | 12.5 (≈ 90.5 µM) | 12.5 (≈ 90.5 µM) | 12.5 (≈ 90.5 µM) |  |  |  | 
Cc1ccccc(O)c1=O [Compound 28, 7-Methyltropolone] | 0.1 (≈ 0.734 µM) | 0.39 (≈ 2.86 µM) | 0.2 (≈ 1.47 µM) | 0.1 (≈ 0.734 µM) |  |  |  | 
Tropolone cobalt complex [Compound 3] |  |  |  |  | 1.56 | 1.56 | 3.13 | 0.78
Tropolone iron complex [Compound 1] |  |  |  |  | 0.78 | 0.78 | 0.56 | 0.39
Tropolone zinc salt [Compound 7] |  |  |  |  | 1.56 | 3.13 | 3.13 | 0.78
